Source: patent US5167948A, “Diagnostic or radiotherapeutic composition comprising a hydrogen containing compound” (priority 1987, dated 1992)

Key:
[1] = tracer amounts, man; in words; cited from earlier work
[2] = 103Ru-concentration in organs of rats after injection of Rc-amphetamine derivatives; assay type: in vivo; details: for 103Ru-concentration, brains / 103Ru-concentration, lungs / 103Ru-concentration, suprarenal glands: 0.5 μmol/kg; for D/H, brains / D/H, lungs / D/H, suprarenal glands: quotient deuterated / non-deuterated
Procedure: The above compounds are intravenously administered in doses of approx. 0.5 μmol/kg to two groups of each 4 rats. The compounds can be represented by the following formula: [drawing 7] After certain periods of time between 0 and 90 minutes after injection test animals are sacrificed and the ^103 Ru-concentration in the brains is determined. The results are graphically recorded in FIG. 1: the ^103 Ru-concentration (C) in the brains i.c. % dose/% body weight (% d/% wt), is plotted against the time (t) in min.
In the same way as described in Example X the effect of deuteration of N-methyl- and N,N-dimethylderivatives of ^103 Ru-labelled ruthenocene-amphetamine is investigated in vivo: groups of 3 or 4 rats as test animals; dose: 0.5 μmol/kg. After 15 or 20 minutes the ^103 Ru-concentration is determined in various organs of the rats, viz. brains, lungs and suprarenal glands, and presented in table B for the compounds tested. As will be apparent from the D/H value, i.e. the quotient of the ^103 Ru concentration of the deuterated compound and that of the non-deuterated compound, in all experiments except one (free amine-lungs) the affinity of the deuterated compounds to the organs is increased compared to the non-deuterated compounds.

[3] = Determination of the relaxation of the water protons (relaxation time T1, inversion recovery method); assay type: physicochemical; details: for T1: 2 millimolar solution in water, 89.55 MHz, room temp.
Procedure: Determination of the relaxation of the water protons by adding paramagnetic deuterated ferricinium compounds compared to the corresponding non-deuterated compounds. The following compounds are tested:
From the above compounds 2 millimolar solutions in water are prepared. Of these solutions the relaxation time T1 is determined at 89.55 MHz on a JEOL FX-90Q NMR spectrometer using the inversion recovery method (room temp.). In the experiments comprising in addition deuterium oxide, D2 O is added in a quantity of 1.0 mMole to a volume of 100 ml of the solution.

[4] = + D2O, 1.0 mMole added to 100 ml of the solution

Compound: [2H]C([2H])([2H])CC(=O)C(CC(C)N(C)C)(c1ccccc1)c1ccccc1 (stereo not drawn) [methadone-d3]
- metabolic behaviour compared with the unmodified drug [1]: substantially identical metabolic behaviour

Compound: [2H]C([c-]1cccc1)C([2H])(C)N.[Ru+2].c1cc[cH-]c1 (stereo not drawn) [--NH2 D, ^103 Ru-1-ruthenocenyl-2-aminopropane-1,2-d2]
- 103Ru-concentration, brains ([2]; 20 min.): 2.56 % dosis/% body weight
- 103Ru-concentration, lungs ([2]; 20 min.): 10.5 % dosis/% body weight
- 103Ru-concentration, suprarenal glands ([2]; 20 min.): 6.2 % dosis/% body weight
- D/H, brains ([2]; 20 min.): 1.31
- D/H, lungs ([2]; 20 min.): 0.85
- D/H, suprarenal glands ([2]; 20 min.): 1.29
- D/H, lungs ([2]; 20 min., listed as free amine): decreased value

Compound: [2H]O[2H] [D2 O, deuterium oxide]
- effect of D2O on relaxation time ([3]; in words, not bound to the complex): does not change the relaxation time significantly

Compound: [103Ru+2].[2H]C([c-]1cccc1)C([2H])(C)NC([2H])([2H])[2H].c1cc[cH-]c1 (stereo not drawn) [--N-methyl D]
- 103Ru-concentration, brains ([2]; 15 min.): 2.56 % dosis/% body weight
- 103Ru-concentration, lungs ([2]; 15 min.): 11.3 % dosis/% body weight
- 103Ru-concentration, suprarenal glands ([2]; 15 min.): 8.3 % dosis/% body weight
- D/H, brains ([2]; 15 min.): 1.12
- D/H, lungs ([2]; 15 min.): 1.26
- D/H, suprarenal glands ([2]; 15 min.): 1.77

Compound: [(CH3 -C5 D4)2 Fe]^+ BF4^- [(b)]
- T1 [3]: 1.23 s

Compound: [103Ru+2].[2H]C([c-]1cccc1)C([2H])(C)N(C([2H])([2H])[2H])C([2H])([2H])[2H].c1cc[cH-]c1 (stereo not drawn) [--N,N-dimethyl D]
- 103Ru-concentration, brains ([2]; 15 min.): 3.33 % dosis/% body weight
- 103Ru-concentration, lungs ([2]; 15 min.): 10.5 % dosis/% body weight
- 103Ru-concentration, suprarenal glands ([2]; 15 min.): 11.9 % dosis/% body weight
- D/H, brains ([2]; 15 min.): 1.45
- D/H, lungs ([2]; 15 min.): 1.32
- D/H, suprarenal glands ([2]; 15 min.): 1.57

Compound: [(CH3 -C5 H4)2 Fe]^+ BF4^- [(a)]
- T1 [3]: 1.62 s
- T1 [3, 4]: 1.60 s

Compound: [(C5 D5)2 Fe]^+ BF4^- [(d)]
- T1 [3]: 1.04 s

Compound: F[B-](F)(F)F.[Fe+3].c1cc[cH-]c1.c1cc[cH-]c1 [(c), [(C5 H5)2 Fe]^+ BF4^-]
- T1 [3]: 1.65 s
- T1 [3, 4]: 1.64 s
